Paper PMC7486443, “Generation of Phenothiazine with Potent Anti-TLK1 Activity for Prostate Cancer Therapy” (iScience, 2020)

Columns and labels:
Test in all cases: biochemical
Set-up in all cases: DiscoverX KINOMEscan scanMAX competition binding panel, single concentration, percent of control; remaining binding: dose or concentration left out as unconfirmed
Details in all cases: KINOMEscan binding, percent of control; read-out: Table S4_SCANMAX REPORT - related to Fig. 1 / Percent Control
TXK = TXK (Homo sapiens, UniProt P42681)
MKNK1 = MKNK1 (Homo sapiens, UniProt Q9BUB5)
ZAK = target: T1, ZAK (Homo sapiens, UniProt Q9NYL2)
T1 construct: gene MAP3K20

CAMK4 = CAMK4 (Homo sapiens, UniProt Q16566)
FES = FES (Homo sapiens, UniProt P07332)
DCAMKL1 = target: T2, DCAMKL1 (Homo sapiens, UniProt O15075)
T2 construct: gene DCLK1

RIOK1 = RIOK1 (Homo sapiens, UniProt Q9BRS2)
MAPKAPK5 = MAPKAPK5 (Homo sapiens, UniProt Q8IW41)
TGFBR1 = TGFBR1 (Homo sapiens, UniProt P36897)
KIT(L576P) = KIT(L576P) (Homo sapiens, UniProt P10721, L576P)
[1] = target: T3, ABL1(E255K)-phosphorylated (Homo sapiens, UniProt P00519, E255K)
T3 construct: phosphorylated

EPHB1 = EPHB1 (Homo sapiens, UniProt P54762)
PLK2 = PLK2 (Homo sapiens, UniProt Q9NYY3)
PFTAIRE2 = target: T4, PFTAIRE2 (Homo sapiens, UniProt Q96Q40)
T4 construct: gene CDK15

DAPK1 = DAPK1 (Homo sapiens, UniProt P53355)
SRPK3 = SRPK3 (Homo sapiens, UniProt Q9UPE1)
CSF1R = CSF1R (Homo sapiens, UniProt P07333)
BMPR2 = BMPR2 (Homo sapiens, UniProt Q13873)
NEK10 = NEK10 (Homo sapiens, UniProt Q6ZWH5)
NEK10, sequence (Q6ZWH5 whole entry): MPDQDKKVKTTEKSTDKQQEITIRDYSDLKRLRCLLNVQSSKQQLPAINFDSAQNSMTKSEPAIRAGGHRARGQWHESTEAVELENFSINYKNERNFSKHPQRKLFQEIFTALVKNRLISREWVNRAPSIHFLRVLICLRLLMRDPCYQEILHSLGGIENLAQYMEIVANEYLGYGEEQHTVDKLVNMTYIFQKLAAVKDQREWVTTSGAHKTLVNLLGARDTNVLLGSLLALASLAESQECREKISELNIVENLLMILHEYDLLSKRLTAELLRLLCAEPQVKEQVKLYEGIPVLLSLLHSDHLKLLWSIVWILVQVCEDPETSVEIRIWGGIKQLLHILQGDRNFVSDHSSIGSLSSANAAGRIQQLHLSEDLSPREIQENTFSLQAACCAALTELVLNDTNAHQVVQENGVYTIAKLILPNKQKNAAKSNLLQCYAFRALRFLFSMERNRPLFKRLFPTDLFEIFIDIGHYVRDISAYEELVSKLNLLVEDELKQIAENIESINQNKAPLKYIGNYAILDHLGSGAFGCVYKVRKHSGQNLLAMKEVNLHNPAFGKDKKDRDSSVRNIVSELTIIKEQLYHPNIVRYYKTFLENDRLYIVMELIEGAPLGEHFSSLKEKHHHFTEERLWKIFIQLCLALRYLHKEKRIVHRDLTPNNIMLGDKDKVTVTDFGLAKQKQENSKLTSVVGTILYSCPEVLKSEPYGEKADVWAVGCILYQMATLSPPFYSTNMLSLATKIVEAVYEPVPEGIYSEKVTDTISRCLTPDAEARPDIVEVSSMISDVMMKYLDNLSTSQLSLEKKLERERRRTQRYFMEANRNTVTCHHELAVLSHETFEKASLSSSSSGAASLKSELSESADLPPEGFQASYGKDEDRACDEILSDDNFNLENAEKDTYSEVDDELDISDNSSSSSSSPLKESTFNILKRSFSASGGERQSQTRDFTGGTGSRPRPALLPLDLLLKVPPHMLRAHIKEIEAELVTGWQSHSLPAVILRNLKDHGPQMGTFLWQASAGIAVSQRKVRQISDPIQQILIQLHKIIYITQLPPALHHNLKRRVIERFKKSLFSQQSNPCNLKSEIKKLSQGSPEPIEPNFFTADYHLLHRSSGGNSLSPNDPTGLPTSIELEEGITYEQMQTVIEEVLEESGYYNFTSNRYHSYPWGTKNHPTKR

T2 sequence (O15075 whole entry): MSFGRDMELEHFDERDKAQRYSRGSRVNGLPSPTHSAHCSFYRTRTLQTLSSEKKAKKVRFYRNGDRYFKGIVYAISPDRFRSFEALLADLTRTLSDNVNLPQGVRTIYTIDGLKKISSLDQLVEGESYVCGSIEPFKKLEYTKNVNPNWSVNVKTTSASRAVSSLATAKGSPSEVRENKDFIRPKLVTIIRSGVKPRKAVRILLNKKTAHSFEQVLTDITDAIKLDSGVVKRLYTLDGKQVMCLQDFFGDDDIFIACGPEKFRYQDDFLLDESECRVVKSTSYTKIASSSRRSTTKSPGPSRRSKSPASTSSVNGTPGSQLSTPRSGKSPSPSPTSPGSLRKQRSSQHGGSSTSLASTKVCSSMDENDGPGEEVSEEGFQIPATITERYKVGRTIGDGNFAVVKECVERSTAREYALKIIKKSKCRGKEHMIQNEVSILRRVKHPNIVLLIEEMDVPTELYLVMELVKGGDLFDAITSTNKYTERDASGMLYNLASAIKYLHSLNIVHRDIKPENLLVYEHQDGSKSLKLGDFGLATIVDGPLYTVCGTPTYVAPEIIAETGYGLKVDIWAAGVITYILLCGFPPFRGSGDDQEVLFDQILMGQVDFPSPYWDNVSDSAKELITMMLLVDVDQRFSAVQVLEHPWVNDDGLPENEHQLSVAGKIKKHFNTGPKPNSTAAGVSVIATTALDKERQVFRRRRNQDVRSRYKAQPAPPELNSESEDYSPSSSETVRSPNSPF
TGFBR1, sequence (P36897 whole entry): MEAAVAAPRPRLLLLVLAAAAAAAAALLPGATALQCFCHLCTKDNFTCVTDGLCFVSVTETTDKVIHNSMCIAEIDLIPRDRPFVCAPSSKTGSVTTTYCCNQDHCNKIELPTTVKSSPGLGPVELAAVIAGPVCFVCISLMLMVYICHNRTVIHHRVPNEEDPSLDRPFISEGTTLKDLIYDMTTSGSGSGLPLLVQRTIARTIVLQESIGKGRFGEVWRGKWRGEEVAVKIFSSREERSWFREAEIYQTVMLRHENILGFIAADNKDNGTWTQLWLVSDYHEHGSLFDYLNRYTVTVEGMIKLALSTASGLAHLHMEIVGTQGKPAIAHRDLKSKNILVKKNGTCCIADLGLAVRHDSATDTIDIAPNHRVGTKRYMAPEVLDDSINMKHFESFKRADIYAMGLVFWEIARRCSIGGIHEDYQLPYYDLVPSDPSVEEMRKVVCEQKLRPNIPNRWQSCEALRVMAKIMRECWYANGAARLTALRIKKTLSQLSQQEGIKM
EPHB1, sequence (P54762 whole entry): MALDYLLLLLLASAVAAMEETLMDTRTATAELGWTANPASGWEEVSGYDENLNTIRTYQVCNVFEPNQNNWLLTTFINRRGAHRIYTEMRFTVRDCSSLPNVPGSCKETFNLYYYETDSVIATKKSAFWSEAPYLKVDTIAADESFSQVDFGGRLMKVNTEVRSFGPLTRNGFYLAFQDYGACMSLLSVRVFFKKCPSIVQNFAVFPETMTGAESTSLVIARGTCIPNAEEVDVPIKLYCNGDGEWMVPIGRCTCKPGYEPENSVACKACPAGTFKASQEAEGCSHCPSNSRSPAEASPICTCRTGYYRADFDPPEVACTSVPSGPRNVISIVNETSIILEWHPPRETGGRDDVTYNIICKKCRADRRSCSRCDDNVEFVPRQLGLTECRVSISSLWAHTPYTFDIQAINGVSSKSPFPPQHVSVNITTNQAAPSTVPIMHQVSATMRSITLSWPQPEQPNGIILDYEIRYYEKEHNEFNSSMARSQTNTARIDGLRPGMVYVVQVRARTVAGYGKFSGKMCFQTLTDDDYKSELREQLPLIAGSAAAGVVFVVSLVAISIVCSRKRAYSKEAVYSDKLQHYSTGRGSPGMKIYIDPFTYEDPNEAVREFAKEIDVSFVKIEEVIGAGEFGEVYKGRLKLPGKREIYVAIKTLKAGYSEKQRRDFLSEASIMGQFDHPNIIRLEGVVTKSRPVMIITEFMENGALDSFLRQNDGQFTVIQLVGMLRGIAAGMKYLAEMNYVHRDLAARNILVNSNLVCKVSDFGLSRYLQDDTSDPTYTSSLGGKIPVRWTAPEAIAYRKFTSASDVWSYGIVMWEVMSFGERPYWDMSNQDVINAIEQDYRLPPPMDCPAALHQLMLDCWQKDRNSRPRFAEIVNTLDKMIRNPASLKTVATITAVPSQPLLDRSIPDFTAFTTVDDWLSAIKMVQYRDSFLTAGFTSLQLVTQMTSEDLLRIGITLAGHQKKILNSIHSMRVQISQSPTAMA
T3 sequence (P00519 whole entry E255K): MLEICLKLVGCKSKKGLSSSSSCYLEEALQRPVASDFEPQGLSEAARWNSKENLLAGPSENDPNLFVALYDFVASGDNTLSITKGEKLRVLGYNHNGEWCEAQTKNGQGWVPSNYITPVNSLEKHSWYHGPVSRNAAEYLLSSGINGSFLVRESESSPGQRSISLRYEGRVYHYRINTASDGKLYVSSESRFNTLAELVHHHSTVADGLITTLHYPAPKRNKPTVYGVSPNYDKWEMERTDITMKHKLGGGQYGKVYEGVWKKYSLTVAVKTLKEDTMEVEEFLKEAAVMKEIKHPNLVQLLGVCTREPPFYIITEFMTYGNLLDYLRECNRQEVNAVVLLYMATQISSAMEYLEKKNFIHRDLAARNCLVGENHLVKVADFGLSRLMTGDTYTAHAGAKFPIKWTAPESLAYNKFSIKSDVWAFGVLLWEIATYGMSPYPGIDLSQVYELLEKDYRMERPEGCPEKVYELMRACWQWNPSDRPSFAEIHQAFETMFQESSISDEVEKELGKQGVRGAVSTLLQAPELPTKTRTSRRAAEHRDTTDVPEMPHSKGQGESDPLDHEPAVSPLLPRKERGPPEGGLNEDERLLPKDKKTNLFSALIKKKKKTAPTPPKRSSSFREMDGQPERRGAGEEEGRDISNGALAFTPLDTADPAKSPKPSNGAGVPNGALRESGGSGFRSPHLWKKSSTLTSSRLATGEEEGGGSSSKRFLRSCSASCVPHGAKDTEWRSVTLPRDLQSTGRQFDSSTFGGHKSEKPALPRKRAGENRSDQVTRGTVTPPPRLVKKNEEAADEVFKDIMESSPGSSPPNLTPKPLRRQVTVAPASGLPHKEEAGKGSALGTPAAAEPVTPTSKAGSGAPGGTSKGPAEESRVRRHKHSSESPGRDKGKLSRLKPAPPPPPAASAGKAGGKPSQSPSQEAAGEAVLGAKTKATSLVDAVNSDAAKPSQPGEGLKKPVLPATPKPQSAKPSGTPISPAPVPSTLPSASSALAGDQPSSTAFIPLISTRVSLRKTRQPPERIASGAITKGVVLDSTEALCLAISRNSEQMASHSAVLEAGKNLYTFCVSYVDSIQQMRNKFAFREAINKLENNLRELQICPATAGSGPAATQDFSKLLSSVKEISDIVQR
MAPKAPK5, sequence (Q8IW41 whole entry): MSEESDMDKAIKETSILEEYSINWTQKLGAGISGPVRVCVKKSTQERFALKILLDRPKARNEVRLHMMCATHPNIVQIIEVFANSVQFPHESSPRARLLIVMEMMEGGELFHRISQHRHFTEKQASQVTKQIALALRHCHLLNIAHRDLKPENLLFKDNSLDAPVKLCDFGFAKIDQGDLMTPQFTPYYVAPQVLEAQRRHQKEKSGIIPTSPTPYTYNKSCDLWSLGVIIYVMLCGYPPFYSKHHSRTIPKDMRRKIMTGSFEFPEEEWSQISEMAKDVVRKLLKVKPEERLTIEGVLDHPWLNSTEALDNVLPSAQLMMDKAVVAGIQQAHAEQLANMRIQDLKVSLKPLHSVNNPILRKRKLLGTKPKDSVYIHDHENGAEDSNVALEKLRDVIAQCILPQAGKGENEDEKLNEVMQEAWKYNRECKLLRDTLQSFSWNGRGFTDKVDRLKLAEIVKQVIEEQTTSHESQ

c1ccc2c(c1)Sc1ccccc1N2CCN1CCOCC1 [J54]
remaining binding (TXK): 99% | remaining binding (MKNK1): 92% | remaining binding (ZAK): 85% | remaining binding (CAMK4): 94% | remaining binding (FES): 100% | remaining binding (DCAMKL1): 100% | remaining binding (RIOK1): 59% | remaining binding (MAPKAPK5): 100% | remaining binding (TGFBR1): 100% | remaining binding (KIT(L576P)): 100% | remaining binding [1]: 86% | remaining binding (EPHB1): 100% | remaining binding (PLK2): 100% | remaining binding (PFTAIRE2): 100% | remaining binding (DAPK1): 99% | remaining binding (SRPK3): 100% | remaining binding (CSF1R): 100% | remaining binding (BMPR2): 100% | remaining binding (NEK10): 97%
